Consider one compound from patent publication US11512085B2, “Heteroaryl compound having drug activity” (SHANGHAI DUDE MEDICAL TECHNOLOGY CO., LTD, priority 2017, dated 2022).

For data set [1], the system named is SU-DHL-4. The data set is described as follows: In vitro tumor cell proliferation (CellTiter-Glo), SU-DHL-4. The class given is cell-based. Conditions: Homo sapiens, SU-DHL-4, 72 h; read-out: Growth IC50. On the procedure:
Biological Embodiment 8: Study on Effects of Active Compounds for Inhibiting In Vitro Tumor Cell Proliferation
Promega CellTiter-Glo cell activity detection kit by luminescence (Promega-G7573).
Tumor cell lines were cultured in a 5% of CO2 incubator at 37° C. according to respective culture conditions; and periodic passage was performed, and cells positioned in a logarithmic phase were taken for planking.
3) 90 μL of cell suspension was added into each well of the culture plate, and a culture solution containing no cell was added into blank control;
4) the culture plate was cultured overnight in the 5% of CO2 incubator having relative humidity of 100% at 37° C.
Preparation of a 400× compound storage plate: the compound was diluted from the maximum concentration gradient to the lowest concentration with DMSO. […]
The following steps were performed according to the specification of the Promega CellTiter-Glo cell activity detection kit by luminescence (Promega-G7573). […]
9) the luminescence signal was detected on the 2104 EnVision plate reader.

Data set [2] concerns p-Btk/t-Btk. The experiment in a line: Western blotting of p-Btk/t-Btk in anti-IgG stimulated DOHH2 cells. The class given is cell-based. Conditions: DOHH2 cells, 5, 100, 2000 nM, 1 h, anti-IgG stimulation. The method, then:
Biological Embodiment 4: Analysis of Influences of Test Compounds on p-Btk/t-Btk, p-PLCγ/t-PLCγ and p-Erk/t-Erk Expression Levels of DOHH2 Cells by Virtue of Western Blotting
1) DOHH2 cells on a logarithmic phase were collected;
2) a cell concentration was adjusted to a needed concentration;
3) 2 ml of cell suspension was added into a 6-well plate for performing culture, three different concentrations, that is, 5 nM, 100 nM and 2000 nM, of test samples were respectively set, and each concentration was repeated once;
4) test samples were added into plate wells, and DMSO served as control, wherein a final concentration of the DMSO was 0.1%;
5) culture was performed for 1 h; and […]
6. protein extraction and quantification […]
5) a protein concentration was determined by using Pierce™ BCA Protein Assay Kit; and
6) according to BCA protein quantification results, all samples were diluted to the same final concentration by adding 4×LDS sample buffer and 10× sample reducing agent into the RIPA buffer solution, and the solution was heated at 100° C. for 10 min. […]
10) chemiluminiscence was detected by Tanon 5200 multi.
7. Quantification of strip intensity
Intensity of each strip was quantified by using Image quant densitometry software. […]

The nature of data set [3]: Human liver microsome stability test. The class given is in vitro ADME. The method, then:
Preparation of Buffer Solution:
1. 100 mM potassium phosphate buffer solution, pH of 7.4
Preparation of Test Compound Solution:
1. A test compound solution (10 mM, 5 μL) was diluted with a methanol solution (495 μL), and a 100 μM solution was prepared;
2. Preparation of a working solution: the above solution (50 μL) was diluted with the potassium phosphate buffer solution (450 μL, 100 mM) so as to obtain diluents (10 μM).
NADPH Regeneration System (Final Concentration 1 Unit/mL of Isocitrate Dehydrogenase):
1. beta-NADP, supplier: sigma Cat. No. N0505
3. isocitrate dehydrogenase, supplier: sigma Cat. No. 12002
Cold acetonitrile containing 100 ng/mL of tolbutamide and 100 ng/mL of labetalol serves as an internal standard
1. a 10 μL/well of working solution was added into plates (T0, T5, T10, T20, T30, T60, NCF60) beyond the blank;
2. a 80 μL/well of microsome solution was added, and incubation was performed at 37° C. for 10 min;
3. a 10 μL of 100 mM phosphate buffer solution was added into each well of an NCF60 plate, the plate was placed in a warm bath at 37° C., and timing started;
4. a 10 μL/well of NADPH regeneration system was added after preheating, and a reaction started;
5. incubation was performed at 37° C., and timing started
6. a 300 μL/well of stop solution was added (4° C., containing 100 ng/mL of tolbutamide and 100 ng/mL of labetalol) to end the reaction;
7. the plate was shaken for 10 min;
8. centrifugation was performed at 4° C. at a rotation speed of 4000 rpm; and
9. sample LC/MS/MS detection was performed.
Data Analysis Use Equation of First Order Kinetics to Calculate t½ and Clint(Mic): […]
equation of first order kinetics: […]

As for `C=CC(=O)NN1CCCC(n2nc(-c3ccc(Oc4ccccc4)cc3)c3c(N)ncnc32)C1` (stereo not shown) [Embodiment 6, N-(3-(4-amino-3-(4-phenoxyphenyl)-1H-pyrazolo[3,4-D]pyrimidine-1-yl)-1-piperidyl)-acrylamide], the IC50 in data set [1] came out at 75 nM. Besides, the “relative level of p-Btk/t-Btk” value in data set [2] was “obviously decreased”. Moreover, the “Remaining (*NCF = 60 min)” value in data set [3] (HLM 0.5, 60 min, no co-factor) stood at 105.9%. In addition, in data set [3] (HLM 0.5, 60 min with NADPH regenerating system), the “Remaining (T = 60 min)” value was 0.2%. In data set [3] (human, liver microsomes, pH 7.4, HLM 0.5 (0.5 mg protein/mL)), this compound had a half-life at 1 µM of 4.3 min. In addition, the microsomal CLint at 1 µM in data set [3] (human, liver microsomes, pH 7.4, HLM 0.5, read-out: CLint(mic)) was 325 µL/min/mg. In data set [3] (human, liver microsomes, pH 7.4, HLM 0.5, scaled from CLint(mic)), this compound had a CLint scaled at 1 µM of 292 mL/min/kg.
